{
  "source": "paper PMC8617627",
  "about": "“Novel DYRK1A Inhibitor Rescues Learning and Memory Deficits in a Mouse Model of Down Syndrome” (Pharmaceuticals, 2021)",
  "assay_in_all_cases": "Kinase profile (33P ATP filter binding)",
  "format_in_all_cases": "biochemical",
  "key": {"MST3": {"biological_target": "MST3 (Homo sapiens, UniProt Q9Y6E0)", "sequence (Q9Y6E0 whole entry)": "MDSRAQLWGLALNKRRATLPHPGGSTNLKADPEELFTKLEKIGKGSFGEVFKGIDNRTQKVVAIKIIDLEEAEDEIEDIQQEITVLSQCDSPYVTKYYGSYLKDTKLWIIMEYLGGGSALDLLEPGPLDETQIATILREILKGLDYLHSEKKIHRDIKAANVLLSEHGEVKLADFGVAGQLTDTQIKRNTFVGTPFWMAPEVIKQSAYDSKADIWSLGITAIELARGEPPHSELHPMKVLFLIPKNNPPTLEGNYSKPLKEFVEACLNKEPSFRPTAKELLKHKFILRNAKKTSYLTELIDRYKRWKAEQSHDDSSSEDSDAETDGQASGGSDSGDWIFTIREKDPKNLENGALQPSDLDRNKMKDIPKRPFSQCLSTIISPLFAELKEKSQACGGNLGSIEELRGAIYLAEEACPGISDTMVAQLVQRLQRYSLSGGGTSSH"}, "YES1": {"biological_target": "YES1 (Homo sapiens, UniProt P07947)", "sequence (P07947 whole entry)": "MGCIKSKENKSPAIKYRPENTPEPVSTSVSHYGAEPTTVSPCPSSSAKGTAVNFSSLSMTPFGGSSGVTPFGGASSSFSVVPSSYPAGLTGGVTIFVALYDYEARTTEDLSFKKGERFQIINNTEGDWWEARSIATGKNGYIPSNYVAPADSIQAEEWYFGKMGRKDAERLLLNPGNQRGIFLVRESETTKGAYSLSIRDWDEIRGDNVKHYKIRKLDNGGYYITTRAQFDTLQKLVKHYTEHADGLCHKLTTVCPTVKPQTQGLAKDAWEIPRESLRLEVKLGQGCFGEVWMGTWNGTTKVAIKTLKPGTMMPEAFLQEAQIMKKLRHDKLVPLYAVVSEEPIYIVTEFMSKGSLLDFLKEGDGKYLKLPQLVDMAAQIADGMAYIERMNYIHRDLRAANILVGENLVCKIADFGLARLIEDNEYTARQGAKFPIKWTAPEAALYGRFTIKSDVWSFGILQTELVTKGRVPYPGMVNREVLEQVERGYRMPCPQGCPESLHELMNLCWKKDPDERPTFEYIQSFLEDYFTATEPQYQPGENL", "settings": "read-out: Remaining protein kinase activity"}, "NUAK1": {"biological_target": "T1, NUAK1 (Homo sapiens, UniProt O60285)", "T1 sequence (O60285 1-661)": "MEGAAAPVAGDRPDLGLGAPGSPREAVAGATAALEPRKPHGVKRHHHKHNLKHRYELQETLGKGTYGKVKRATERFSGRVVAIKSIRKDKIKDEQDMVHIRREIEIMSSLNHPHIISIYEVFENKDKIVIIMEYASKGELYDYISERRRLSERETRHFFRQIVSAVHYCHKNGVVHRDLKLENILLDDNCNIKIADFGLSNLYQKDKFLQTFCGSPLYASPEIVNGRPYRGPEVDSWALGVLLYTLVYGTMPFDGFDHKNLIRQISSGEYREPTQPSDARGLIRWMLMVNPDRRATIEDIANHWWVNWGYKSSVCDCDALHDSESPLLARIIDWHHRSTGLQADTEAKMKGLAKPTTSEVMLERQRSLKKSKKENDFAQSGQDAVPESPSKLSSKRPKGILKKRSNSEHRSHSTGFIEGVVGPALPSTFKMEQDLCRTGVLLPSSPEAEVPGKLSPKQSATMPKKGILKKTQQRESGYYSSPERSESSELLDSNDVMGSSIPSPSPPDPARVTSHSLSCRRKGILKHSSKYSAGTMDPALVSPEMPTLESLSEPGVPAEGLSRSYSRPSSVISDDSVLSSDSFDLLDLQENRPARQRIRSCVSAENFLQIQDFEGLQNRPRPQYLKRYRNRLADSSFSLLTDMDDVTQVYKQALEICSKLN"}, "MAPKAP-K3": {"biological_target": "MAPKAP-K3 (Homo sapiens, UniProt Q16644)", "sequence (Q16644 whole entry)": "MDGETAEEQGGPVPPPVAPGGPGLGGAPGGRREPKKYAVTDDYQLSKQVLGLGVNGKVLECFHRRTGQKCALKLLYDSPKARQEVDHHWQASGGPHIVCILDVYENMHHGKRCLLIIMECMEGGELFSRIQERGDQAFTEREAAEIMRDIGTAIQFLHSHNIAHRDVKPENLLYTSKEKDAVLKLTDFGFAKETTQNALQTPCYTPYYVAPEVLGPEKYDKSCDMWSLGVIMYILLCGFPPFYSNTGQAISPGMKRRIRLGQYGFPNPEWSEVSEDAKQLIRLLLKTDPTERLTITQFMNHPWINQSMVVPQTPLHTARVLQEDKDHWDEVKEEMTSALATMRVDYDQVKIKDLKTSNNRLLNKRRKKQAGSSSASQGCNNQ", "settings": "read-out: Remaining protein kinase activity"}, "MKK2": {"biological_target": "MKK2 (Homo sapiens, UniProt P36507)", "sequence (P36507 whole entry, species assumed)": "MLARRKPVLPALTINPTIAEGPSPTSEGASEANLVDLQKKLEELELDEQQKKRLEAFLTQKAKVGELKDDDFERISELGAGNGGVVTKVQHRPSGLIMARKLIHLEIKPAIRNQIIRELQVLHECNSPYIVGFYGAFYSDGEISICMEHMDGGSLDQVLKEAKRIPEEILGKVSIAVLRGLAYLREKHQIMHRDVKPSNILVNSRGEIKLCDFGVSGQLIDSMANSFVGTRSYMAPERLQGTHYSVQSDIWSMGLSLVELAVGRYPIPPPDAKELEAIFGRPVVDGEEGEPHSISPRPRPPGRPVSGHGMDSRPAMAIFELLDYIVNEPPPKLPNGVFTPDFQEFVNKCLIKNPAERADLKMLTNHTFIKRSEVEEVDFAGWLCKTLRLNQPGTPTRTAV", "settings": "read-out: Remaining protein kinase activity"}, "PRK2": {"biological_target": "PRK2 (Homo sapiens, UniProt Q16513)", "sequence (Q16513 whole entry, species assumed)": "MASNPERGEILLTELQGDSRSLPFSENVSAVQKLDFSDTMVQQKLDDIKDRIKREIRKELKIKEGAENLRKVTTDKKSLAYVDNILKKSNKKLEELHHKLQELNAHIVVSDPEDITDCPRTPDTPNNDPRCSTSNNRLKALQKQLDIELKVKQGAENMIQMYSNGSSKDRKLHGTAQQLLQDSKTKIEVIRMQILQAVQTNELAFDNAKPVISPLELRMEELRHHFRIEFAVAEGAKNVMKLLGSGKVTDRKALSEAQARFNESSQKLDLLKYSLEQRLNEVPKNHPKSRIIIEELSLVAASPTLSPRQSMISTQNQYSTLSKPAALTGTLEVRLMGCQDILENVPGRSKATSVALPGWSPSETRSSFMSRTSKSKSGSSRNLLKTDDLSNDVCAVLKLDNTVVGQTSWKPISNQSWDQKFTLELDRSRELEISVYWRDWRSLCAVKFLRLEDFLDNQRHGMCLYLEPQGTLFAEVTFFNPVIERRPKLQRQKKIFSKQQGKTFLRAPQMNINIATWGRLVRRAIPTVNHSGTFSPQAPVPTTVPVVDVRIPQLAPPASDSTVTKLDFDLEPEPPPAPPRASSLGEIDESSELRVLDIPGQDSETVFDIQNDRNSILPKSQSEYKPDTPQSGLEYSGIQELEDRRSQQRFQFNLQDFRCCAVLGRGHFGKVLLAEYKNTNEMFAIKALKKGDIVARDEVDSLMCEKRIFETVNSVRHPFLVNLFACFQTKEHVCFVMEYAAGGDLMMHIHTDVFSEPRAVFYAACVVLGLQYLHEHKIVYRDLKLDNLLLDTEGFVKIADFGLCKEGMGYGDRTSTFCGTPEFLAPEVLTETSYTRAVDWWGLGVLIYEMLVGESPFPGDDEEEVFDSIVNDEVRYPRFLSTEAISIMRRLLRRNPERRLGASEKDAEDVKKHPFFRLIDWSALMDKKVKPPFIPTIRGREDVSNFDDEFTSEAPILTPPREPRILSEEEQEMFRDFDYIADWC", "settings": "read-out: Remaining protein kinase activity"}, "PKCz": {"biological_target": "T2, PKCz (Homo sapiens, UniProt Q05513)", "T2 sequence (Q05513 1-592)": "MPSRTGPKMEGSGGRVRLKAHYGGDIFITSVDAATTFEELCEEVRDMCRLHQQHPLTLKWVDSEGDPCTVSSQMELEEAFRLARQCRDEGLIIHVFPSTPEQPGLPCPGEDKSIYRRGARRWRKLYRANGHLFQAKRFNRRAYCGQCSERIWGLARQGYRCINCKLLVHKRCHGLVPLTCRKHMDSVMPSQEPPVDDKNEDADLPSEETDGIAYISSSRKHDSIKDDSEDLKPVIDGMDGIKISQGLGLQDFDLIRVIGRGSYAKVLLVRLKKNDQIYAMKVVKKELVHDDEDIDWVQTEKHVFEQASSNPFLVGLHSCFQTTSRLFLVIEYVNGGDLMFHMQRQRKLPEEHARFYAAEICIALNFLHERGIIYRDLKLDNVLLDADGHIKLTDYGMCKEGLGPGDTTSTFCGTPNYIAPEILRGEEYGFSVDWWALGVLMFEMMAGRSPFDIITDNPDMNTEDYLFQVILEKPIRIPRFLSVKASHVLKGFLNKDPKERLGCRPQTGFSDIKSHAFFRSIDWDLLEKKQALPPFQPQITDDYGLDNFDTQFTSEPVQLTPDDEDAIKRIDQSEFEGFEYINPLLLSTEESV", "settings": "read-out: Remaining protein kinase activity"}, "PIM2": {"biological_target": "PIM2 (Homo sapiens, UniProt Q9P1W9)", "sequence (Q9P1W9 whole entry)": "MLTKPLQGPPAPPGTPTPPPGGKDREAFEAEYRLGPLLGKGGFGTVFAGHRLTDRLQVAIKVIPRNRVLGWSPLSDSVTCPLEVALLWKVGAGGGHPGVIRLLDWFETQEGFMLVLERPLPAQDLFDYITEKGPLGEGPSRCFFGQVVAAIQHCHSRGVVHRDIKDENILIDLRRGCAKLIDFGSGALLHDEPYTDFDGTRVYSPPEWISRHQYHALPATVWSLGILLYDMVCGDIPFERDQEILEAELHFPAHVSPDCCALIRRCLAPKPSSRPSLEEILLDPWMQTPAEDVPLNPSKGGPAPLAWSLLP", "settings": "read-out: Remaining protein kinase activity"}, "MEKK1": {"biological_target": "MEKK1 (Homo sapiens, UniProt Q13233)", "sequence (Q13233 whole entry)": "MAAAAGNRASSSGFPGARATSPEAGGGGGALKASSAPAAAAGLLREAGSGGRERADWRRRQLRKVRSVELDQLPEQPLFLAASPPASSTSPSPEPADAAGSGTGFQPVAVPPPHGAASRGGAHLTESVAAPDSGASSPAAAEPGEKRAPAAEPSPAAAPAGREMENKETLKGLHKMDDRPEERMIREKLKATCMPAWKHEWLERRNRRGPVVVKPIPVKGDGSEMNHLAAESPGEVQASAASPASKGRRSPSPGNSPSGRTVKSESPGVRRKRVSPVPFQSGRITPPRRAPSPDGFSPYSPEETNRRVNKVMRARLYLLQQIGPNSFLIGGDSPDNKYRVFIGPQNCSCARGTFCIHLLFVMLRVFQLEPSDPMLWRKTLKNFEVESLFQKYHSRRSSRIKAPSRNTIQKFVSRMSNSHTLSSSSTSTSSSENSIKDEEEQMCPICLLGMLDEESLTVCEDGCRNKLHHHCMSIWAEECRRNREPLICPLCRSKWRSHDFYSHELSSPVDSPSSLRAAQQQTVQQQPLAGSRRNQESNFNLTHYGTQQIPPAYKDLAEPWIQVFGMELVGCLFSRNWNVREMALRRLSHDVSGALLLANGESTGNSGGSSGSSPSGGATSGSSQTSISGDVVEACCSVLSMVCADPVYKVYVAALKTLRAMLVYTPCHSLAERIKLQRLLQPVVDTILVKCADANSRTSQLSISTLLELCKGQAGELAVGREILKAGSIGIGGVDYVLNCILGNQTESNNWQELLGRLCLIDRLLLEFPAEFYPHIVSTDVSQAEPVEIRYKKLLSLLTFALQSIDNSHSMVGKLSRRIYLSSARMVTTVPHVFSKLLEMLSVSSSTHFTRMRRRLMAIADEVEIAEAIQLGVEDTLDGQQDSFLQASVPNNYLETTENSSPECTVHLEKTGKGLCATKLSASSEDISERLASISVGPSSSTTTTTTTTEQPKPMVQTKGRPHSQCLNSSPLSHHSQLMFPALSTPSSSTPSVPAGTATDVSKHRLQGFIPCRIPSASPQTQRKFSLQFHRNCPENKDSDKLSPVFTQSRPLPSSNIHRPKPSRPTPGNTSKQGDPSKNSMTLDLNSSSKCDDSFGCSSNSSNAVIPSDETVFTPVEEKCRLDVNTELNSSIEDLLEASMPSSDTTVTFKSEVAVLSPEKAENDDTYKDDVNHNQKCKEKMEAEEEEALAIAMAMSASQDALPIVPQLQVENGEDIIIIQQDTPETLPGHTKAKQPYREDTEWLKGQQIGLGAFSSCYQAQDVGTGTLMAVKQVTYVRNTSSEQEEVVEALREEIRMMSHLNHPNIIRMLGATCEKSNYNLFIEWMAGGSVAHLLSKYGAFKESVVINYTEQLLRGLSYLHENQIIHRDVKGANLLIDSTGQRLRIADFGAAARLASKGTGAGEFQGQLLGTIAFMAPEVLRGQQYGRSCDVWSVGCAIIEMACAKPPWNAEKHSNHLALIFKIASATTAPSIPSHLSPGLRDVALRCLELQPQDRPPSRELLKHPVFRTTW", "settings": "read-out: Remaining protein kinase activity"}},
  "note": "Where two headings read alike, the source gives them in different places.",
  "data": [
    {"smiles": "COc1ccc2sc(-c3cncc(N)c3)nc2c1", "note": "[compound 1, 5-(5-Methoxybenzo[d]thiazol-2-yl)pyridin-3-amine]", "values": [
      {"measurement": "Remaining protein kinase activity", "setting": "MST3; 1 μM", "result": 114, "unit": "%"},
      {"measurement": "Remaining protein kinase activity", "setting": "MST3; 100 μM", "result": 96, "unit": "%"},
      {"measurement": "remaining activity at 1 µM", "setting": "YES1; YES1, 1 μM", "result": 122, "unit": "%"},
      {"measurement": "remaining activity at 100 µM", "setting": "YES1; YES1, 100 μM", "result": 58, "unit": "%"},
      {"measurement": "Remaining protein kinase activity", "setting": "NUAK1; 1 μM", "result": 112, "unit": "%"},
      {"measurement": "Remaining protein kinase activity", "setting": "NUAK1; 100 μM", "result": 35, "unit": "%"},
      {"measurement": "remaining activity at 1 µM", "setting": "MAPKAP-K3; MAPKAP-K3, 1 μM", "result": 115, "unit": "%"},
      {"measurement": "remaining activity at 100 µM", "setting": "MAPKAP-K3; MAPKAP-K3, 100 μM", "result": 74, "unit": "%"},
      {"measurement": "remaining activity at 1 µM", "setting": "MKK2; MKK2, 1 μM", "result": 81, "unit": "%"},
      {"measurement": "remaining activity at 100 µM", "setting": "MKK2; MKK2, 100 μM", "result": 62, "unit": "%"},
      {"measurement": "remaining activity at 1 µM", "setting": "PRK2; PRK2, 1 μM", "result": 103, "unit": "%"},
      {"measurement": "remaining activity at 100 µM", "setting": "PRK2; PRK2, 100 μM", "result": 74, "unit": "%"},
      {"measurement": "remaining activity at 1 µM", "setting": "PKCz; PKCz, 1 μM", "result": 106, "unit": "%"},
      {"measurement": "remaining activity at 100 µM", "setting": "PKCz; PKCz, 100 μM", "result": 128, "unit": "%"},
      {"measurement": "remaining activity at 1 µM", "setting": "PIM2; PIM2, 1 μM", "result": 110, "unit": "%"},
      {"measurement": "remaining activity at 100 µM", "setting": "PIM2; PIM2, 100 μM", "result": 36, "unit": "%"},
      {"measurement": "remaining activity at 1 µM", "setting": "MEKK1; MEKK1, 1 μM", "result": 132, "unit": "%"},
      {"measurement": "remaining activity at 100 µM", "setting": "MEKK1; MEKK1, 100 μM", "result": 107, "unit": "%"}
    ]},
    {"smiles": "COc1ccc2sc(-c3cncc(NC(C)=O)c3)nc2c1", "note": "[PST-001, N-(5-(5-Methoxybenzo[d]thiazol-2-yl)pyridin-3-yl)acetamide]", "values": [
      {"measurement": "Remaining protein kinase activity", "setting": "MST3; 1 μM", "result": 118, "unit": "%"},
      {"measurement": "Remaining protein kinase activity", "setting": "MST3; 100 μM", "result": 113, "unit": "%"},
      {"measurement": "remaining activity at 1 µM", "setting": "YES1", "result": 130, "unit": "%"},
      {"measurement": "remaining activity at 100 µM", "setting": "YES1", "result": 128, "unit": "%"},
      {"measurement": "Remaining protein kinase activity", "setting": "NUAK1; 1 μM", "result": 130, "unit": "%"},
      {"measurement": "remaining activity at 1 µM", "setting": "MAPKAP-K3", "result": 115, "unit": "%"},
      {"measurement": "remaining activity at 100 µM", "setting": "MAPKAP-K3", "result": 113, "unit": "%"},
      {"measurement": "remaining activity at 1 µM", "setting": "MKK2", "result": 75, "unit": "%"},
      {"measurement": "remaining activity at 100 µM", "setting": "MKK2", "result": 100, "unit": "%"},
      {"measurement": "remaining activity at 1 µM", "setting": "PRK2", "result": 102, "unit": "%"},
      {"measurement": "remaining activity at 100 µM", "setting": "PRK2", "result": 101, "unit": "%"},
      {"measurement": "remaining activity at 1 µM", "setting": "PKCz", "result": 119, "unit": "%"},
      {"measurement": "remaining activity at 100 µM", "setting": "PKCz", "result": 124, "unit": "%"},
      {"measurement": "remaining activity at 1 µM", "setting": "PIM2", "result": 120, "unit": "%"},
      {"measurement": "remaining activity at 100 µM", "setting": "PIM2", "result": 102, "unit": "%"},
      {"measurement": "remaining activity at 1 µM", "setting": "MEKK1", "result": 126, "unit": "%"},
      {"measurement": "remaining activity at 100 µM", "setting": "MEKK1", "result": 109, "unit": "%"}
    ]}
  ]
}
